Reference: patent US20110097426A1, “Methods for Safe and Effective Treatment Using Oxazaphosphorine Drugs” (Accentia Biopharmaceuticals, Inc., priority 2007, published 2011)
Where two headings read alike, the source gives them in different places.

Key:
[1] = system: patients with aggressive relapsing-remitting multiple sclerosis
Excerpt: All 9 patients had aggressive relapsing-remitting multiple sclerosis, 8 of whom failed conventional therapy and 1 was untreated. Median age at time of entry was 29 years (range of 20 to 47 years). The mean number of gadolinium enhancing lesions on baseline MRI was 6.5 (range 3-11).

[2] = system: white blood cell (WBC) count
Protocol: Nine patients were treated 50 mg/kg/day cyclophosphamide intravenously for four days (on Day-3 to Day 0).
On Day 6, (six days after completion of high-dose cyclophosphamide treatment), patients received G-CSF.

SMILES: O=P1(N(CCCl)CCCl)NCCCO1 (stereo not shown) [cyclophosphamide]
- reduction in disability (EDSS) ([1]; 50 mg/kg/day i.v. for four days, 9 patients): 50%
- reduction in gadolinium enhancements ([1]; at 6 months, 50 mg/kg/day i.v. for four days, 9 patients): 90%
- reduction in gadolinium enhancements ([1]; by 18 months, 50 mg/kg/day i.v. for four days, 9 patients): 94%
- adverse outcomes ([1]; initial cohort of 9 patients with severe relapsing MS): no significant adverse outcomes
- patients having no disability (EDSS score of 0) ([1]; of 9 patients): 3 patients
- patients with EDSS score of 1 ([1]; of 9 patients): 1 patient
- patients with an exacerbation during follow-up ([1]; of 9 patients, started on conventional MS therapy at 18 months): one
- gadolinium enhancing lesions (GEL) at subsequent follow-up visits ([1]; patient HiCy01): did not have any GEL
- gadolinium enhancing lesions (GEL) at follow-up ([1]; patients HiCy05 and HiCy13, up to 24 months follow-up): no gadolinium enhancing lesions
- gadolinium enhancing lesions (GEL) on follow-up MRIs ([1]; patients HiCy07 and HiCy14, who first went to 0 GEL): a single GEL
- gadolinium enhancing lesions (GEL) ([1]; patients HiCy09 and HiCy15): 0
- gadolinium enhancing lesions (GEL) at follow-up ([1]; patients HiCy11 and HiCy19 (HiCy19 only 6 months of follow-up)): always had GEL on every follow up
- minimum WBC ([2]; patient HiCy01): 70
- minimum WBC ([2]; patient HiCy07): 6
- minimum WBC count ([2]; patient HiCy11): 24
- minimum WBC ([2]; patient HiCy14): 31
- minimum WBC count ([2]; patient HiCy19): 50
- WBC count ([2]; patients HiCy05 and HiCy13, within two weeks of treatment): 0
- minimum WBC count ([2]; patients HiCy09 and HiCy15 (both)): 12
